The values that follow come from ChEMBL document CHEMBL4483862, “Open-source discovery of chemical leads for next-generation chemoprotective antimalarials” (2018).

The assay has as its system Plasmodium berghei. The experiment in a line: Luciferase/luciferin-expressing antifolate-resistant parasites were used to infect a culture of HepG2 cells that were pre-incubated with compounds. Infected hepatocytes emit light due to the luciferase reaction. Assay results are presented as the percent inhibition of light emission compared to control. […]. The class given is functional. Particulars: sporozoite; for IC90: read-out: LUCIFERASE INFECTION ASSAY - IC90.

`CCOC(=O)c1cnc2c([N+](=O)[O-])cccc2c1O`: the IC90 came to 4 µM. Further, the half-inhibitory concentration (IC50) (PBLUC_HILL_SLOPE 2.74, PBLUC_R_SQUARED 0.626, read-out: LUCIFERASE INFECTION ASSAY - IC50) is 1.79 µM.
`Cc1ccc(S(=O)(=O)N2c3ccc(S(N)(=O)=O)cc3CC2C)cc1` (configuration not stated): the 90% effect concentration (IC90) is more than 9.01 µM. In addition, where the note is “PBLUC_HILL_SLOPE 2.71, PBLUC_R_SQUARED 0.472, read-out: LUCIFERASE INFECTION ASSAY - IC50”, the half-maximal inhibitory concentration (IC50) stood at 4.01 µM.
For the compound `O=C(Nc1ccc(Oc2ccc(C(F)(F)F)cn2)c(Cl)c1)C1CC1`, the IC90 amounted to 4.36 µM. Besides, the 50% inhibitory concentration (IC50) (PBLUC_HILL_SLOPE 2.75, PBLUC_R_SQUARED 0.594, read-out: LUCIFERASE INFECTION ASSAY - IC50) stood at 1.96 µM.
As for `CN1C(c2ccc(F)cc2)=CS/C1=C(/C#N)c1nnc(N2CCOCC2)n1-c1ccccc1`, the 90% effect concentration (IC90) is more than 10 µM. Also, the half-maximal inhibitory concentration (IC50) (PBLUC_HILL_SLOPE 2.7, PBLUC_R_SQUARED 0.681, read-out: LUCIFERASE INFECTION ASSAY - IC50) turned out to be 6.9 µM.
Turning to `OC(CN1CCN(CC(O)Cn2c3ccccc3c3ccccc32)CC1)Cn1c2ccccc2c2ccccc21` (configuration not stated), the IC90 was more than 6.2 µM. The concentration for half-maximal inhibition (IC50) (PBLUC_HILL_SLOPE 2.73, PBLUC_R_SQUARED 0.624, read-out: LUCIFERASE INFECTION ASSAY - IC50) came to 3.03 µM.
As for `N#Cc1c(Cl)cccc1Oc1ccc(S(=O)(=O)Oc2c(Cl)cccc2Cl)cc1`, the IC90 is more than 7.26 µM. Also, the half-inhibitory concentration (IC50) (PBLUC_HILL_SLOPE 2.67, PBLUC_R_SQUARED 0.0667, read-out: LUCIFERASE INFECTION ASSAY - IC50) was 6.81 µM.
For the compound `Cc1ccc(-c2nc3c(c(SCCN4CCCC4)n2)COC(C)(C)C3)cc1`, the IC90 is more than 8.6 µM. Besides, where the note is “PBLUC_HILL_SLOPE 2.75, PBLUC_R_SQUARED 0.0927, read-out: LUCIFERASE INFECTION ASSAY - IC50”, the IC50 was found to be 7.13 µM.
As for `CN(Cc1ccccc1)S(=O)(=O)N1CCC(C(O)(c2ccccc2)c2ccccc2)CC1`, the IC90 came to 9.51 µM. For the same compound, under “PBLUC_HILL_SLOPE 2.67, PBLUC_R_SQUARED 0.571, read-out: LUCIFERASE INFECTION ASSAY - IC50”, the IC50 was 4.18 µM.
Turning to `CC(NCC(O)COc1ccccc1C(C)(C)C)c1ccccc1` (configuration not stated), the IC90 is more than 9.07 µM. The IC50 (PBLUC_HILL_SLOPE 2.67, PBLUC_R_SQUARED 0.166, read-out: LUCIFERASE INFECTION ASSAY - IC50) came out at 4.35 µM.
`Cc1ccc(Nc2nc(N)nc(CN(C)Cc3nc(=O)c4ccccc4[nH]3)n2)cc1`: the IC90 worked out at 8.22 µM. Further, the IC50 (PBLUC_HILL_SLOPE 2.75, PBLUC_R_SQUARED 0.503, read-out: LUCIFERASE INFECTION ASSAY - IC50) is 3.7 µM.
As for `Clc1ccc(OCCN2CCN(c3ccc4nnnn4n3)CC2)cc1`, the 90% effect concentration (IC90) was more than 10 µM. Besides, the half-inhibitory concentration (IC50) (PBLUC_HILL_SLOPE 2.76, PBLUC_R_SQUARED 0.489, read-out: LUCIFERASE INFECTION ASSAY - IC50) came out at 6.13 µM.
With `Cc1nc(-c2ccc(NC(=O)c3cnn(-c4ccccc4F)c3C(F)(F)F)cc2)cs1`, the 90% effect concentration (IC90) was more than 10 µM. Also, the IC50 (PBLUC_HILL_SLOPE 2.7, PBLUC_R_SQUARED 0.26, read-out: LUCIFERASE INFECTION ASSAY - IC50) was determined as 7.76 µM.
Turning to `CCN(CC)CCn1c(NC(=O)c2cc(-c3cccs3)nn2-c2ccccc2)nc2ccccc21`, the concentration for an effect of 90% (IC90) is more than 10 µM. Also, the IC50 (PBLUC_HILL_SLOPE 2.69, PBLUC_R_SQUARED 0.0924, read-out: LUCIFERASE INFECTION ASSAY - IC50) was determined as 6.76 µM.
With `COc1ccc(C(CNC(=O)c2ccccc2-c2ncc(-c3ccccc3)o2)N(C)C)cc1` (configuration not stated), the 90% effect concentration (IC90) was more than 10 µM. In addition, under “PBLUC_HILL_SLOPE 2.7, PBLUC_R_SQUARED 0.455, read-out: LUCIFERASE INFECTION ASSAY - IC50”, the half-inhibitory concentration (IC50) is 5.19 µM.
Regarding `OCc1ccc(-c2cn3c(-c4ccc(Oc5ccccc5)cc4)cnc3cn2)cc1`, the 90% effect concentration (IC90) is more than 8.39 µM. The IC50 (PBLUC_HILL_SLOPE 2.74, PBLUC_R_SQUARED 0.523, read-out: LUCIFERASE INFECTION ASSAY - IC50) is 5.32 µM.
For the compound `COc1ccc(C(C)(C)C)cc1NC(=O)C(=O)c1c(-c2ccccc2)cc2ccccn12`, the IC90 was 8.89 µM. Also, under “PBLUC_HILL_SLOPE 2.71, PBLUC_R_SQUARED 0.442, read-out: LUCIFERASE INFECTION ASSAY - IC50”, the IC50 stood at 3.95 µM.
For the compound `Cc1c(C(=O)Nc2ccnn2Cc2ccccc2)cnn1C(C)(C)C`, the 90% effect concentration (IC90) was more than 10 µM. For the same compound, the half-inhibitory concentration (IC50) (PBLUC_HILL_SLOPE 2.67, PBLUC_R_SQUARED 0.113, read-out: LUCIFERASE INFECTION ASSAY - IC50) is more than 10 µM.
On to `CC(C)CNC1=C(Cl)C(=O)c2ccccc2C1=O`, for which the IC90 was more than 12.5 µM. Besides, the 50% inhibitory concentration (IC50) (PBLUC_HILL_SLOPE 2.71, PBLUC_R_SQUARED 0.283, read-out: LUCIFERASE INFECTION ASSAY - IC50) amounted to 11.4 µM.
For `CCN(CC)S(=O)(=O)c1ccc(C(C)NC(=O)c2cn(C)c3ccccc23)cc1` (configuration not stated), the IC90 came to 6.07 µM. Also, where the note is “PBLUC_HILL_SLOPE 2.76, PBLUC_R_SQUARED 0.764, read-out: LUCIFERASE INFECTION ASSAY - IC50”, the 50% inhibitory concentration (IC50) was found to be 2.73 µM.
For `COc1cccc(-c2cc3c(Nc4cccc(OC(C)C)c4)nccc3n2C)c1`, the IC90 is more than 10 µM. The 50% inhibitory concentration (IC50) (PBLUC_HILL_SLOPE 2.76, PBLUC_R_SQUARED 0.246, read-out: LUCIFERASE INFECTION ASSAY - IC50) amounted to 6.87 µM.
For the compound `CC(C)(C)c1ccc(CSc2nncn2-c2ccc(OCc3ccccc3)cc2)cc1`, the IC90 is more than 7.68 µM. The 50% inhibitory concentration (IC50) (PBLUC_HILL_SLOPE 2.75, PBLUC_R_SQUARED 0.0661, read-out: LUCIFERASE INFECTION ASSAY - IC50) came out at 5.39 µM.
`Cc1ccc(-n2[nH]c(C)c(C=Nc3ccc(OC(F)(F)F)cc3)c2=O)cc1`: the IC90 was more than 8.79 µM. For the same compound, the IC50 (PBLUC_HILL_SLOPE 2.73, PBLUC_R_SQUARED 0.732, read-out: LUCIFERASE INFECTION ASSAY - IC50) was determined as 4.57 µM.
As to `Cc1cc(/C=C(\C#N)C(=O)OCC(=O)c2c(N)n(CC(C)C)c(=O)n(C)c2=O)c(C)n1CC(C)C`, the IC90 was more than 10 µM. For the same compound, the half-maximal inhibitory concentration (IC50) (PBLUC_HILL_SLOPE 2.67, PBLUC_R_SQUARED 0.243, read-out: LUCIFERASE INFECTION ASSAY - IC50) worked out at 7.76 µM.
With `Cc1cc(=O)nc(N/N=C/c2cc(C)n(-c3ccc(C)c(C)c3)c2C)[nH]1`, the 90% effect concentration (IC90) is more than 10 µM. For the same compound, where the note is “PBLUC_HILL_SLOPE 2.67, PBLUC_R_SQUARED 0.2, read-out: LUCIFERASE INFECTION ASSAY - IC50”, the IC50 stood at 9.4 µM.
Consider `COc1cccc(Nc2nccc3nc(-c4cccc(C)c4)[nH]c23)c1`, for which the 90% effect concentration (IC90) was more than 10 µM. The half-maximal inhibitory concentration (IC50) (PBLUC_HILL_SLOPE 2.7, PBLUC_R_SQUARED 0.647, read-out: LUCIFERASE INFECTION ASSAY - IC50) amounted to 6.02 µM.
Regarding `CCOc1cc2c(cc1CNC(=O)c1cnc3cc(C)nn3c1C)OC(C)C2` (configuration not stated), the IC90 turned out to be 4.78 µM. Also, for the setting “PBLUC_HILL_SLOPE 2.71, PBLUC_R_SQUARED 0.828, read-out: LUCIFERASE INFECTION ASSAY - IC50”, the half-inhibitory concentration (IC50) worked out at 2.13 µM.
On to `c1ccc2c(c1)[nH]c1nc(SCc3cn4ccsc4n3)nnc12`, for which the 90% effect concentration (IC90) turned out to be 1.85 µM. Further, under “PBLUC_HILL_SLOPE 2.76, PBLUC_R_SQUARED 0.824, read-out: LUCIFERASE INFECTION ASSAY - IC50”, the IC50 was determined as 0.836 µM.
For `O=C(Nc1ccc(-n2cccn2)nc1)C1=NN(c2ccccc2)C(=O)CN1`, the 90% effect concentration (IC90) was more than 10 µM. In addition, where the note is “PBLUC_HILL_SLOPE 2.66, PBLUC_R_SQUARED 0.194, read-out: LUCIFERASE INFECTION ASSAY - IC50”, the half-maximal inhibitory concentration (IC50) is more than 10 µM.
Turning to `CCN1CCc2nc(NC(=O)c3ccccc3Nc3ccc(F)cc3)sc2C1`, the concentration for an effect of 90% (IC90) worked out at 8.04 µM. For the same compound, the concentration for half-maximal inhibition (IC50) (PBLUC_HILL_SLOPE 2.71, PBLUC_R_SQUARED 0.663, read-out: LUCIFERASE INFECTION ASSAY - IC50) was 3.58 µM.
On to `O=S(=O)(c1ccc(Cl)c(NC(=S)N/N=C/c2ccc3ncccc3c2)c1)N1CCOCC1`, for which the concentration for an effect of 90% (IC90) is more than 10 µM. For the same compound, for the setting “PBLUC_HILL_SLOPE 2.75, PBLUC_R_SQUARED 0.637, read-out: LUCIFERASE INFECTION ASSAY - IC50”, the half-inhibitory concentration (IC50) stood at 5.55 µM.
Regarding `CC(Oc1ccc(-c2ccc(C#N)cc2)cc1)C(=O)C12CC3CC(CC(C3)C1)C2` (configuration not stated), the IC90 was more than 10 µM. Also, where the note is “PBLUC_HILL_SLOPE 2.77, PBLUC_R_SQUARED 0.53, read-out: LUCIFERASE INFECTION ASSAY - IC50”, the 50% inhibitory concentration (IC50) is 5.65 µM.
As to `Cn1ccc(NC(=O)c2cccc(S(=O)(=O)N(Cc3ccccc3)c3ccccc3Cl)c2)n1`, the concentration for an effect of 90% (IC90) is more than 10 µM. The IC50 (PBLUC_HILL_SLOPE 2.72, PBLUC_R_SQUARED 0.559, read-out: LUCIFERASE INFECTION ASSAY - IC50) was determined as 4.88 µM.
On to `COc1cc(OC)c(OC)cc1CNC(=O)c1ccc2[nH]c3c(c2c1)CCCC3`, for which the 90% effect concentration (IC90) was more than 10 µM. Moreover, for the setting “PBLUC_HILL_SLOPE 2.72, PBLUC_R_SQUARED 0.276, read-out: LUCIFERASE INFECTION ASSAY - IC50”, the IC50 is 9.2 µM.
With `O=C(/C=C/c1cccs1)N1CCN(S(=O)(=O)c2ccc(Cl)c(C(F)(F)F)c2)CC1`, the 90% effect concentration (IC90) is more than 10 µM. Under “PBLUC_HILL_SLOPE 2.7, PBLUC_R_SQUARED 0.367, read-out: LUCIFERASE INFECTION ASSAY - IC50”, the IC50 is 5.47 µM.
Take `Cc1cc(NCCN(C)C)n2nc(C(F)(F)F)c(-c3ccccc3)c2n1`: the IC90 was more than 9.08 µM. Also, the IC50 (PBLUC_HILL_SLOPE 2.75, PBLUC_R_SQUARED 0.0665, read-out: LUCIFERASE INFECTION ASSAY - IC50) came to 5.68 µM.
Turning to `CCN(CC)S(=O)(=O)c1ccc(N2CCOCC2)c(NC(=O)c2oc3ccccc3c2C)c1`, the concentration for an effect of 90% (IC90) amounted to 9.03 µM. The half-inhibitory concentration (IC50) (PBLUC_HILL_SLOPE 2.77, PBLUC_R_SQUARED 0.561, read-out: LUCIFERASE INFECTION ASSAY - IC50) came to 4.08 µM.

In general, IC50 refers to the concentration that inhibits the measured activity by half. The IC90 is the point of the concentration-response curve where the effect stands at 90%.
